# Source: US20250066344A1 (BRISTOL-MYERS SQUIBB COMPANY, priority 2021, published 2025)
# System: not given
# Experiment: not given
# Details: intravenous (IV) formulation; cited from earlier work
row,Molecule,first-phase pharmacokinetic half-life [min]
1,Serelaxin,5.4

# Biological target: T1, human RXFP1 (Homo sapiens, UniProt Q9HBX9)
# T1 construct: expressed in transfected cells
# T1 sequence (Q9HBX9 1-757): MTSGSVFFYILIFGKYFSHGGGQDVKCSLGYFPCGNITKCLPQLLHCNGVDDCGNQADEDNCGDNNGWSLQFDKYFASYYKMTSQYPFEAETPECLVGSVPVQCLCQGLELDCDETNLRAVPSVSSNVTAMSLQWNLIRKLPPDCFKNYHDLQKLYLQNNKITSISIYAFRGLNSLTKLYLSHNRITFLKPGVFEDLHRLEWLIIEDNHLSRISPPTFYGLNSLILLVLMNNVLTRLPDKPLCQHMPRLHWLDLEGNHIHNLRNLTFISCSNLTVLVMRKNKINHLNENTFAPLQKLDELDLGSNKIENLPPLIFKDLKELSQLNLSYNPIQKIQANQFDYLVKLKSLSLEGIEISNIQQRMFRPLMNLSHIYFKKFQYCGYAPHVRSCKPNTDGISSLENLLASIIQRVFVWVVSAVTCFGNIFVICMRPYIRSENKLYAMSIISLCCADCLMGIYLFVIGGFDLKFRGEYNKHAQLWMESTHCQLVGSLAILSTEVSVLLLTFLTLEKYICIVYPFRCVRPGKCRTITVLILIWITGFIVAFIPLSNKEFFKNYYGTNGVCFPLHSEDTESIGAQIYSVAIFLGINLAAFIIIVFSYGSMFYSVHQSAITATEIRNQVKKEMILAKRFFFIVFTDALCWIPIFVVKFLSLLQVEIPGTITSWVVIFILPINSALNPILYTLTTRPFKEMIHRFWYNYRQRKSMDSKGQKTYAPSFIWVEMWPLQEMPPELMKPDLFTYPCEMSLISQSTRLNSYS
# Experiment: RXFP1 cyclic adenosine monophosphate (cAMP) assay, hRXFP1 HEK293
# Type: cell-based
# Details: HEK293 cells stably expressing human RXFP1; 30 min at room temperature; HTRF cAMP
# In short: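 HEK293 cells stably expressing human RXFP1 were exposed to compounds (0.010 nM–50 μM, 2% DMSO) for 30 min at room temperature in HBSS/HEPES buffer with 0.5 mM IBMX. Intracellular cAMP was measured by HTRF against a cAMP standard curve; EC50 from 4-parameter logistic fit.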
row,EC50 [nM],Molecule
1,260,"COc1ccc(-c2cnc3n2CCN(CCO)C3)cc1C(=O)Nc1cc2c(cc1C(=O)Nc1ccc(F)c(C(F)(F)F)c1)OC(F)(F)O2 [Example 80, 2,2-difluoro-N-(4-fluoro-3-(trifluoromethyl)phenyl)-6-(5-(7-(2-hydroxyethyl)-5,6,7,8-tetrahydroimidazo[1,2-a]pyrazin-3-yl)-2-methoxybenzamido) benzo[d][1,3]dioxole-5-carboxamide]"
2,282,"COc1ccc(-c2cnc3n2CCN(C2COC2)C3)cc1C(=O)Nc1cc2c(cc1C(=O)Nc1ccc(F)c(C(F)(F)F)c1)OC(F)(F)O2 [Example 81, 2,2-difluoro-N-(4-fluoro-3-(trifluoromethyl)phenyl)-6-(2-methoxy-5-(7-(oxetan-3-yl)-5,6,7,8-tetrahydroimidazo[1,2-a]pyrazin-3-yl)benzamido)benzo[d] [1,3]dioxole-5-carboxamide]"
3,144,"COc1ccc(-c2cnc3n2CCN(CC(N)=O)C3)cc1C(=O)Nc1cc2c(cc1C(=O)Nc1ccc(F)c(C(F)(F)F)c1)OC(F)(F)O2 [Example 82, 6-(5-(7-(2-amino-2-oxoethyl)-5,6,7,8-tetrahydroimidazo[1,2-a]pyrazin-3-yl)-2-methoxybenzamido)-2,2-difluoro-N-(4-fluoro-3-(trifluoromethyl)phenyl) benzo[d][1,3]dioxole-5-carboxamide]"
4,399,"COCC1CC(c2ccc(OC)c(C(=O)Nc3cc4c(cc3C(=O)Nc3ccc(F)c(C(F)(F)F)c3)OC(F)(F)O4)c2)=NO1 (stereo not drawn) [Example 83, 2,2-difluoro-N-(4-fluoro-3-(trifluoromethyl)phenyl)-6-(2-methoxy-5-(5-(methoxymethyl)-4,5-dihydroisoxazol-3-yl)benzamido)benzo[d] [1,3]dioxole-5-carboxamide]"
5,485,"COc1ccc(-c2noc(C(C)(C)O)n2)cc1C(=O)Nc1cc2c(cc1C(=O)Nc1ccc(F)c(C(F)(F)F)c1)OC(F)(F)O2 [Example 84, 2,2-difluoro-N-(4-fluoro-3-(trifluoromethyl)phenyl)-6-(5-(5-(2-hydroxypropan-2-yl)-1,2,4-oxadiazol-3-yl)-2-methoxybenzamido) benzo[d][1,3]dioxole-5-carboxamide]"
6,161,"COc1ccc(-c2nc(N3CCOCC3)no2)cc1C(=O)Nc1cc2c(cc1C(=O)Nc1ccc(F)c(C(F)(F)F)c1)OC(F)(F)O2 [Example 87, 2,2-difluoro-N-(4-fluoro-3-(trifluoromethyl)phenyl)-6-(2-methoxy-5-(3-morpholino-1,2,4-oxadiazol-5-yl)benzamido)benzo[d] [1,3]dioxole-5-carboxamide]"
7,274,"COc1ccc(CN2CC3(C2)CS(=O)(=O)C3)cc1C(=O)Nc1cc2c(cc1C(=O)Nc1ccc(F)c(C(F)(F)F)c1)OC(F)(F)O2 [Example 88, 6-(5-((2,2-dioxido-2-thia-6-azaspiro[3.3]heptan-6-yl)methyl)-2-methoxybenzamido)-2,2-difluoro-N-(4-fluoro-3-(trifluoromethyl)phenyl) benzo[d][1,3]dioxole-5-carboxamide]"
8,2640,"COc1ccc(C2CC3(CNC3)C2)cc1C(=O)Nc1cc2c(cc1C(=O)Nc1ccc(F)c(C(F)(F)F)c1)OC(F)(F)O2 [Example 92, 2,2-difluoro-N-(4-fluoro-3-(trifluoromethyl)phenyl)-6-(2-methoxy-5-(2-azaspiro[3.3]heptan-6-yl)benzamido)benzo[d] [1,3]dioxole-5-carboxamide]"
9,1090,"COc1ccc(-c2ccc3c(c2)CCNC3)cc1C(=O)Nc1cc2c(cc1C(=O)Nc1ccc(F)c(C(F)(F)F)c1)OC(F)(F)O2 [Example 93, 2,2-difluoro-N-(4-fluoro-3-(trifluoromethyl)phenyl)-6-(2-methoxy-5-(1,2,3,4-tetrahydroisoquinolin-6-yl)benzamido)benzo[d] [1,3]dioxole-5-carboxamide]"
10,862,"COc1ccc(C2CCCN(C3COC3)CC2)cc1C(=O)Nc1cc2c(cc1C(=O)Nc1ccc(F)c(C(F)(F)F)c1)OC(F)(F)O2 (stereo not drawn) [Example 95, 2,2-difluoro-N-(4-fluoro-3-(trifluoromethyl)phenyl)-6-(2-methoxy-5-(1-(oxetan-3-yl)azepan-4-yl)benzamido)benzo[d] [1,3]dioxole-5-carboxamide]"
11,339,"COc1ccc(C2CCCN(CC(N)=O)CC2)cc1C(=O)Nc1cc2c(cc1C(=O)Nc1ccc(F)c(C(F)(F)F)c1)OC(F)(F)O2 (stereo not drawn) [Example 96, 6-(5-(1-(2-amino-2-oxoethyl)azepan-4-yl)-2-methoxybenzamido)-2,2-difluoro-N-(4-fluoro-3-(trifluoromethyl)phenyl) benzo[d][1,3]dioxole-5-carboxamide]"
12,666,"COc1ccc(C2CC3(C2)CN(C(=O)C(C)(C)O)C3)cc1C(=O)Nc1cc2c(cc1C(=O)Nc1ccc(F)c(C(F)(F)F)c1)OC(F)(F)O2 [Example 97, 2,2-difluoro-N-(4-fluoro-3-(trifluoromethyl)phenyl)-6-(5-(2-(2-hydroxy-2-methylpropanoyl)-2-azaspiro[3.3]heptan-6-yl)-2-methoxybenzamido) benzo[d][1,3]dioxole-5-carboxamide]"
13,1.3,COc1ccc(C2=NOC3CC(CO)CC23)cc1C(=O)Nc1cc2c(cc1C(=O)Nc1ccc(F)c(C(F)(F)F)c1)OC(F)(F)O2 (stereo not drawn) [Example 98]
14,3.9,"COc1ccc(C2=NOC3CC(CO)CC23)cc1C(=O)Nc1cc2c(cc1C(=O)Nc1ccc(F)c(C(F)(F)F)c1)OC(F)(F)O2 (stereo not drawn) [Example 99, 2,2-difluoro-N-(4-fluoro-3-(trifluoromethyl)phenyl)-6-(5-(5-(hydroxymethyl)-3a,5,6,6a-tetrahydro-4H-cyclopenta[d]isoxazol-3-yl)-2-methoxybenzamido) benzo[d][1,3]dioxole-5-carboxamide]"
15,8.4,"CC1(C)Cc2cc(C3=NOC4CC(CO)CC34)cc(C(=O)Nc3cc4c(cc3C(=O)Nc3ccc(F)c(C(F)(F)F)c3)OC(F)(F)O4)c2O1 (stereo not drawn) [Example 100, 2,2-difluoro-N-(4-fluoro-3-(trifluoromethyl)phenyl)-6-(5-(5-(hydroxymethyl)-3a,5,6,6a-tetrahydro-4H-cyclopentafdlisoxazol-3-yl)-2,2-dimethyl-2,3-dihydrobenzofuran-7-carboxamido)benzo[d] [1,3]dioxole-5-carboxamide]"
16,9.8,"CC(C)(C)NS(=O)(=O)c1ccc(F)c(-c2cc3c(c(C(=O)Nc4cc5c(cc4C(=O)Nc4ccc(F)c(C(F)(F)F)c4)OC(F)(F)O5)c2)OC(C)(C)C3)c1 [Example 101, 6-(5-(5-(N-(tert-butyl)sulfamoyl)-2-fluorophenyl)-2,2-dimethyl-2,3-dihydrobenzofuran-7-carboxamido)-2,2-difluoro-N-(4-fluoro-3-(trifluoromethyl)phenyl) benzo[d][1,3]dioxole-5-carboxamide]"
17,10.6,"COc1cc(F)c(C2=NOC3CC(CO)CC23)cc1C(=O)Nc1cc2c(cc1C(=O)Nc1ccc(F)c(C(F)(F)F)c1)OC(F)(F)O2 (stereo not drawn) [Example 102, 2,2-difluoro-N-(4-fluoro-3-(trifluoromethyl)phenyl)-6-(4-fluoro-5-(5-(hydroxymethyl)-3a,5,6,6a-tetrahydro-4H-cyclopenta[d]isoxazol-3-yl)-2-methoxybenzamido) benzo[d][1,3]dioxole-5-carboxamide]"
